Literature values, collected in PMC9363195, “Preclinical Pharmacokinetics, Biodistribution, and Acute Toxicity Evaluation of Caerin 1.9 Peptide in Sprague Dawley Rats” (Evidence-based Complementary and Alternative Medicine : eCAM, 2022).

Test system: TC-1 cells
Conditions: cited from earlier work
From the text: Caerin 1.1 and Caerin 1.9 are stable.

Caerin 1.1
prevention of development of TC-1 cells after heating (heated at 100°C for 5 minutes): equally effective
activity after incubation (room temperature, 7 days, low pH environment (pH5.5-7)): remained active
bioactivity after incubation in temperature-sensitive gel (temperature-sensitive gel, room temperature, 30 days): maintained a similar degree of bioactivity
